# Measurements reported in US20160303089A1, “COMPOUND PERTAINING TO NEUROPOIESIS AND DRUG COMPOSITION” (KYOTO UNIVERSITY, priority 2013, published 2016).
# Legend:
# [1] = target: CLK3 (Homo sapiens, UniProt P49761); assay: In vitro assay of the inhibition of protein phosphorylation activity; type: biochemical
# [2] = target: CLK1 (Homo sapiens, UniProt P49759); assay: as above; type: biochemical
# [3] = system: phosphorylation of tau protein; assay: Tau phosphorylation in brain, acute cold water stress model (western blotting); type: in vivo; conditions: administered 30 minutes before cold water stress (10 minutes); brains collected 5 minutes later
# Procedure: Further, the study was conducted to investigate whether the compounds 1 to 2 inhibited the DYRK activity in the animal individuals in vivo by using phosphorylation of tau protein due to acute cold water stress as a marker. The animals were exposed to cold water stress for 10 minutes, and their brains were collected 5 minutes later. Then, the phosphorylation of the tau protein in the brains was confirmed by western blotting. Consequently, the phosphorylation of the tau protein was enhanced by the acute cold water stress. When the compound 1 or the compound 2 was administered to the animal individuals 30 minutes before they underwent the cold water stress, the tau phosphorylation caused by the cold water stress was inhibited.
# [4] = target: T1, DYRK2 (Homo sapiens, UniProt Q92630); assay: In vitro assay of the inhibition of protein phosphorylation activity; type: biochemical
# T1 construct: expressed in transfected cells; host or cells: HEK293 Flp-In
# T1 sequence (Q92630 1-601): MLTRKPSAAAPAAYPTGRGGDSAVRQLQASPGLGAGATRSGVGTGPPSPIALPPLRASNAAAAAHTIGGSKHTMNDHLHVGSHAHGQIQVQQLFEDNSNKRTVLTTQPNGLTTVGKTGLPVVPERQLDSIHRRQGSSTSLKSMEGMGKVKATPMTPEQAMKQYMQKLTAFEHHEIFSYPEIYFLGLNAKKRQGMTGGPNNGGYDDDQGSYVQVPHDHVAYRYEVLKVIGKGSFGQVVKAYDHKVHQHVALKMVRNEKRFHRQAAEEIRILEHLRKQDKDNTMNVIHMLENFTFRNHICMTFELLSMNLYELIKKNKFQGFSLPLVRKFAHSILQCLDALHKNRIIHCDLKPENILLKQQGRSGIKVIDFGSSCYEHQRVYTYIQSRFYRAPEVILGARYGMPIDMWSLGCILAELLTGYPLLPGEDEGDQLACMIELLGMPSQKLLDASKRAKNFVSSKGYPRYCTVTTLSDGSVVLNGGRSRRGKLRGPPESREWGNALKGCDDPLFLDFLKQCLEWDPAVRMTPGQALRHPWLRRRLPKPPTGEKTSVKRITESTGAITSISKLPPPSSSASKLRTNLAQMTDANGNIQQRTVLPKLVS
# [5] = target: DYRKIB (Homo sapiens, UniProt Q9Y463); assay: as above; type: biochemical
# Chain of DYRKIB (Q9Y463 whole entry): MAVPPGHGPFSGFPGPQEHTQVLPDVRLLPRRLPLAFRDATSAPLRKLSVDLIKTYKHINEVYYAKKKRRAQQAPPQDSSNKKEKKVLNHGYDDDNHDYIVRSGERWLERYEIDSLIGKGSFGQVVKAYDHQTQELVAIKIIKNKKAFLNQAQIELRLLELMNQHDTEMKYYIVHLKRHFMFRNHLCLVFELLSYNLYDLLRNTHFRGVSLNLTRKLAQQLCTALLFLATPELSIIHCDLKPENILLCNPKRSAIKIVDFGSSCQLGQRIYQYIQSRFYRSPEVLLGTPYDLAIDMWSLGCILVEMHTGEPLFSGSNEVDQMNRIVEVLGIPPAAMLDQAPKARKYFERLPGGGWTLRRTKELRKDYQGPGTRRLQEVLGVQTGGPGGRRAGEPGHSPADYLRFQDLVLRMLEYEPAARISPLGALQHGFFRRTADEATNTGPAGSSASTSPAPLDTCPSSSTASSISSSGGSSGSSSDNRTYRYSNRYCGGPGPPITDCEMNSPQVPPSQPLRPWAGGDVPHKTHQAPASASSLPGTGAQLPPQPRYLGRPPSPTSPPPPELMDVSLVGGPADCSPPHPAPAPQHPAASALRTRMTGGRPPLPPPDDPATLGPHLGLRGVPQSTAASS
# [6] = target: T2, DYRK3 (Homo sapiens, UniProt O43781); assay: as above; type: biochemical
# T2 sequence (O43781 1-588): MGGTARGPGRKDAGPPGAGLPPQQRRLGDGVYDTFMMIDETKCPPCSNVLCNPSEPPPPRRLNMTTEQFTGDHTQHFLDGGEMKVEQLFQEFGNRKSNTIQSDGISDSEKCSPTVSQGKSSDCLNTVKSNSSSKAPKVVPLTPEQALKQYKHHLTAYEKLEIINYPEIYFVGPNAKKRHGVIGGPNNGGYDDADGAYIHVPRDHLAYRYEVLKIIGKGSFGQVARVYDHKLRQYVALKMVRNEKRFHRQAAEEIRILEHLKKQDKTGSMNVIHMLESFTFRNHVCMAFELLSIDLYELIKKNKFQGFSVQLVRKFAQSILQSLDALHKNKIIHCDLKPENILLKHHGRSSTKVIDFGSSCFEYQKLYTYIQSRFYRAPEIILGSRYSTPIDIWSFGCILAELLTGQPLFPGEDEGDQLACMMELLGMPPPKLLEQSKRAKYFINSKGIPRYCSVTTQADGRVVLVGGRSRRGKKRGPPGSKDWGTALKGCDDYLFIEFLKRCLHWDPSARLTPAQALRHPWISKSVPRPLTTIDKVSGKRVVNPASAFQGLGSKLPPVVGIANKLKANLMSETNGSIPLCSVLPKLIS
# [7] = target: T3, DYRK1A (Homo sapiens, UniProt Q13627); assay: as above; type: biochemical
# [8] = target: CLK2 (Homo sapiens, UniProt P49760); assay: as above; type: biochemical
# Chain of CLK2 (P49760 whole entry, species assumed): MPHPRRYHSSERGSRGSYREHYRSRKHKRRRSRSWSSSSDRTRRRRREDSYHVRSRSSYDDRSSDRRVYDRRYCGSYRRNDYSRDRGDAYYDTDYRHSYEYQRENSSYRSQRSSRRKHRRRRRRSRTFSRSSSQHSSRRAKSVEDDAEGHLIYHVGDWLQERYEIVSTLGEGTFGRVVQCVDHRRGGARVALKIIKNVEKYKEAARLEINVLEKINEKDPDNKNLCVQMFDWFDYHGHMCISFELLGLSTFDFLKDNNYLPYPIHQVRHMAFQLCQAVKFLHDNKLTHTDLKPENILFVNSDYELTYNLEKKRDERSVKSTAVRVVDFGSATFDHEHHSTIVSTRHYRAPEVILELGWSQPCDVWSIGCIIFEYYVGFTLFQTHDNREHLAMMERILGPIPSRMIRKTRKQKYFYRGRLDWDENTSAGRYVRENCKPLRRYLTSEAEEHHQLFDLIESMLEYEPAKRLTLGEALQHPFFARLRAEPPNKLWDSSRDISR
# [9] = target: T4, DYRKIA (Homo sapiens, UniProt Q13627); assay: Cyclin D1 expression in HEK293 Flp-In cell line with inducible DYRK expression (western blotting); type: cell-based
# T4 construct: expressed in transfected cells; host or cells: HEK293 Flp-In
# Procedure: (§1) Using cell lines that can induce the expression of DYRKIA, DYRKIB, and DYRK2 by the addition of a drug, the expression level of cyclin D1 was examined when DYRK was overexpressed (see FIG. 8). Specifically, the experiments were performed in the following manner.
# (§2) A HEK293 Flp-In cell system was used to prepare cell lines that can induce the expression of each of DYRKIA, DYRK1B, and DYRK2 of the DYRK family by the addition of a drug. The cells were treated with the drug for 16 hours to induce the expression of DYRK, and then cultured in the presence of the compound 2 (5 μM) for 4 hours. After the cells were collected, the expression level of cyclin D1 was analyzed by western blotting (see FIG. 8).
# [10] = target: T5, DYRK1B (Homo sapiens, UniProt Q9Y463); assay: as above; type: cell-based
# T5 construct: expressed in transfected cells; host or cells: HEK293 Flp-In
# T5 sequence (Q9Y463 whole entry, species assumed): as the sequence (Q9Y463 whole entry) above
# Procedure: as §1, §2
# [11] = target: T1, DYRK2; assay: as above; type: cell-based
# Procedure: as §1, §2
# [12] = system: neural stem cells in the dentate gyrus of the hippocampus; assay: Neurogenesis in dentate gyrus of hippocampus of mice (BrdU positive cells); type: in vivo, C57BL/6J mice; conditions: oral, 30 mg/kg and 100 mg/kg for 10 or 30 days; depended on the dosage; compared to solvent control
# Procedure: The effect of the compound 2 on neurogenesis in animal individuals (rodents) was studied. The subgranular zone of the dentate gyrus of the hippocampus is a region where neurogenesis occurs. In this region, 5-bromo-2′-deoxyuridine (BrdU) was used as a cell proliferation marker to specifically detect proliferating cells and quantitatively compare the number of proliferating cells. Specifically, the experiments were performed in the following manner. The compound 2 was prepared with a carboxymethyl cellulose solvent and orally administered repeatedly to 9-week-old male C57BL/6J mice (each weighing 25 g) in a dosage of 30 mg/kg and 100 mg/kg for 10 or 30 days. On the last day of the administration, 150 mg/kg of BrdU were intraperitoneally injected into the mice, and the samples were collected 24 hours later by perfusion fixation. Then, coronal sections of 50 μm were prepared by a microtome. After the denaturation of DNA by 1.5 N hydrochloric acid, an anti-BrdU antibody was used to detect BrdU that had been incorporated into the proliferating neural stem cells.
# [13] = target: T3, DYRK1A; assay: Tau phosphorylation in cell lines with induced expression of DYRK1A and tau protein (western blotting); type: cell-based; parameters: dose or concentration left out as unconfirmed; conditions: compound for 4 hours after induced expression of DYRK1A and tau
# Procedure: Moreover, the study was conducted to investigate whether the compound 3 inhibited the DYRK activity in the cells in vivo by using phosphorylation of tau protein (substrate) as a marker. First, cell lines that can induce the expression of DYRK1A and a tau protein by a drug were established. The cell lines were subjected to the drug treatment to induce the expression of DYRKIA and the tau protein. Then, the cells were treated with the compound 3 […] for 4 hours. After the cells were collected, the phosphorylation of the tau protein was detected by western blotting. The results confirmed that the treatment of the cells with the compound 3 inhibited the tau phosphorylation.
# Chain of CLK1 (P49759 whole entry): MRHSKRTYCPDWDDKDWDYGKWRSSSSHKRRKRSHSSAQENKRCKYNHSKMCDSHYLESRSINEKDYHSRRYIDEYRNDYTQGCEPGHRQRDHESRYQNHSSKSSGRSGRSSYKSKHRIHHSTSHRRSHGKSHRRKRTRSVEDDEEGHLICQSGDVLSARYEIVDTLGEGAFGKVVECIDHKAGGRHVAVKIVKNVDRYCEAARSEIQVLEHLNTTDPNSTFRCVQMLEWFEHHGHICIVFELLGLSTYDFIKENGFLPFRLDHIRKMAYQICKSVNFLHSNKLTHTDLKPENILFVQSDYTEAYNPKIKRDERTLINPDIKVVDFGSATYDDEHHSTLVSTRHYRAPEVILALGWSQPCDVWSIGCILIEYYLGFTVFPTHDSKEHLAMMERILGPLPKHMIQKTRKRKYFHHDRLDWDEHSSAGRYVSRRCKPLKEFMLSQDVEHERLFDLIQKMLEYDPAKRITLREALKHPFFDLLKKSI
# Chain of CLK3 (P49761 whole entry, species assumed): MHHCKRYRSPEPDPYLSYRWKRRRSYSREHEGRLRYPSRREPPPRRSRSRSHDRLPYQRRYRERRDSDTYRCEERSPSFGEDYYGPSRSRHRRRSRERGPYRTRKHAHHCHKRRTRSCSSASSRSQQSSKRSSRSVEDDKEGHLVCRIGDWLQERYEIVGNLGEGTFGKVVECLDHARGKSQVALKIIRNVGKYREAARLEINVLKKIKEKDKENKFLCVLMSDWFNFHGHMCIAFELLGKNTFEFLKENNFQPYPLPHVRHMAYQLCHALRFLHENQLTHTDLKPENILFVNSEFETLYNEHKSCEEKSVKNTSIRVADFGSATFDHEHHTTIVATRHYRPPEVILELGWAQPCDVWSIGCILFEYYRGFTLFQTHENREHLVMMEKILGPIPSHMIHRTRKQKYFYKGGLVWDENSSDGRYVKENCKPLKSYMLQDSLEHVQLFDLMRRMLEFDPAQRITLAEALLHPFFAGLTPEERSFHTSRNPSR
inhibition of the CLK3 activity [1] [%],inhibition of the CLK1 activity [2] [%],inhibition of the DYRK2 activity [4] [%],inhibition of the DYRKIB activity [5] [%],inhibition of the DYRK3 activity [6] [%],inhibition of the DYRK1A activity [7] [%],inhibition of the CLK2 activity [8] [%],"expression level of cyclin D1 ([9]; DYRKIA cell line, compound 5 μM for 4 hours, lane 2 of FIG. 8)","reduction in cyclin D1 by inducing the expression of DYRK ([9]; DYRKIA expression induced 16 hours, then compound 5 μM for 4 hours, lane 4 of FIG. 8)","expression level of cyclin D1 ([10]; DYRK1B cell line, compound 5 μM for 4 hours, lane 6 of FIG. 8)","reduction in cyclin D1 by inducing the expression of DYRK ([10]; DYRK1B expression induced 16 hours, then compound 5 μM for 4 hours, lane 8 of FIG. 8)","expression level of cyclin D1 ([11]; DYRK2 cell line, compound 5 μM for 4 hours, lane 10 of FIG. 8)","reduction in cyclin D1 by inducing the expression of DYRK ([11]; DYRK2 expression induced 16 hours, then compound 5 μM for 4 hours, lane 12 of FIG. 8)",Structure (SMILES),tau phosphorylation caused by the cold water stress (brain) [3],number of proliferating cells (BrdU positive) in the subgranular zone of the dentate gyrus of the hippocampus [12],tau phosphorylation in cells [13]
80,99,100,99,100,98,98,,,,,,,"CCN1/C(=C/C(C)=O)Sc2ccc3c(c21)CCO3 [compound 1, (Z)-1-[1-ethyl-7,8-dihydrobenzofuro[4,5-d]thiazol-2(1H)-ylidene]propan-2-one]",inhibited,,
,,,,,,,increased,corrected,increased,corrected,increased,corrected,"CCN1/C(=C/C(C)=O)Sc2ccc3occc3c21 [compound 2, (Z)-1-[1-ethyl-7,8-benzofuro[4,5-d]thiazol-2(1H)-ylidene]propan-2-one]",inhibited,significantly large,
,,,,,,,,,,,,,"COc1ccc2c([nH]c3c(C)nccc32)c1C#C[Si](C)(C)C [compound 3, 8-[2-(trimethylsilyl)ethynyl]harmine]",,,inhibited
